Results as given in patent US7423159B2, “Agent for preventing or treating neuropathy” (Takeda Pharmaceutical Company Limited, priority 2002, dated 2008).

Row | SMILES | melting point
1 | CCOP(=O)(Cc1cccc(NC(=O)/C=C/c2cnn(C)c2-c2ccc(F)cc2)c1)OCC | 170 to 172 °C
2 | Cn1ncc(/C=C/C(=O)Nc2ccc(Cc3nnn[nH]3)cc2)c1-c1ccc(F)cc1 [Example 87, (2E)-3-[5-(4-Fluorophenyl)-1-methyl-1H-pyrazol-4-yl]-N-[4-(1H-tetrazol-5-ylmethyl)phenyl]acrylamide] | 252 to 253 °C
3 | CCOP(=O)(Cc1ccc(NC(=O)/C=C/c2cn[nH]c2-c2ccc(F)cc2)cc1)OCC | 181 to 182 °C
4 | CCn1nnc(Cc2ccc(NC(=O)/C=C/c3cnn(C)c3-c3ccc(F)cc3)cc2)n1 [Example 104, (2E)-N-{4-[(2-Ethyl-2H-tetrazol-5-yl)methyl]phenyl}-3-[5-(4-fluorophenyl)-1-methyl-1H-pyrazol-4-yl]acrylamide] | 187 to 188 °C
5 | CCc1nc(Cc2ccc(NC(=O)/C=C/c3cnn(C)c3-c3ccc(F)cc3)cc2)cs1 [Example 99, (2E)-N-{4-[(2-Ethyl-1,3-thiazol-4-yl)methyl]phenyl}-3-[5-(4-fluorophenyl)-1-methyl-1H-pyrazol-4-yl]acrylamide] | 178 to 179 °C
6 | COP(=O)(Cc1ccc(NC(=O)/C=C/c2cnn(C)c2-c2cccc(F)c2)cc1)OC | 224 to 226 °C
7 | CCn1ncc(/C=C/C(=O)Nc2ccc(CP(=O)(OC)OC)cc2)c1-c1ccc(F)cc1 | 187 to 189 °C
8 | CCOP(=O)(Cc1ccc(NC(=O)/C=C/c2cnn(C)c2C)cc1)OCC | 228 to 230 °C
9 | Cc1nc(Cc2ccc(NC(=O)/C=C/c3cnn(C)c3-c3ccc(F)cc3)cc2)no1 [Example 116, (2E)-3-[5-(4-Fluorophenyl)-1-methyl-1H-pyrazol-4-yl]-N-{4-[(5-methyl-1,2,4-oxadiazol-3-yl)methyl]phenyl}acrylamide] | 183 to 184 °C
10 | Cn1ncc(/C=C/C(=O)Nc2ccc(Cc3nnco3)cc2)c1-c1ccc(F)cc1 [Example 129, (2E)-3-[5-(4-Fluorophenyl)-1-methyl-1H-pyrazol-4-yl]-N-[4-(1,3,4-oxadiazol-2-ylmethyl)phenyl]acrylamide] | 223 to 224 °C
11 | COP(=O)(Cc1ccc(NC(=O)/C=C/c2cnn(C)c2-c2cccs2)cc1)OC | 247 to 248 °C
12 | CCC(O)(CC)Cc1ccc(NC(=O)/C=C/c2cnn(C)c2-c2ccc(F)cc2)cc1 [Example 115, (2E)-N-[4-(2-Ethyl-2-hydroxybutyl)phenyl]-3-[5-(4-fluorophenyl)-1-methyl-1H-pyrazol-4-yl]acrylamide] | 150 to 151 °C

Further lines, results first:

Row | melting point | SMILES
13 | 279 to 280 °C | Cc1cc2ncn(Cc3ccc(NC(=O)/C=C/c4cnn(C)c4-c4ccc(F)cc4)cc3)c2cc1C [Example 172, (2E)-N-(4-[(5,6-Dimethyl-1H-benzimidazol-1-yl)methyl]phenyl}-3-[5-(4-fluorophenyl)-1-methyl-1H-pyrazol-4-yl]acrylamide]
14 | 226 to 227 °C | Cn1ncc(/C=C/C(=O)Nc2ccc(Cc3nc(C(=O)O)cs3)cc2)c1-c1ccc(F)cc1 [Example 131, 2-[4-({(2E)-3-[5-(4-fluorophenyl)-1-methyl-1H-pyrazol-4-yl]prop-2-enoyl}amino)benzyl]-1,3-thiazole-4-carboxylic acid]
15 | 202 to 203 °C | Cc1cn(Cc2ccc(NC(=O)/C=C/c3cnn(C)c3-c3ccc(F)cc3)cc2)cn1 [Example 202, (2E)-3-[5-(4-Fluorophenyl)-1-methyl-1H-pyrazol-4-yl]-N-{4-[(4-methyl-1H-imidazol-1-yl)methyl]phenyl}acrylamide]
16 | 222 to 223 °C | Cn1ncc(/C=C/C(=O)Nc2ccc(Cn3nc4ccccc4n3)cc2)c1-c1ccc(F)cc1 [Example 179, (2E)-N-[4-(2H-1,2,3-Benzotriazol-2-ylmethyl)phenyl]-3-[5-(4-fluorophenyl)-1-methyl-1H-pyrazol-4-yl]acrylamide]
17 | 164 to 165 °C | CSc1ccc(NC(=O)/C=C/c2cnn(C)c2-c2ccc(F)cc2)cc1 [Example 204, (2E)-3-[5-(4-Fluorophenyl)-1-methyl-1H-pyrazol-4-yl]-N-[4-(methylthio)phenyl]acrylamide]
18 | 205 to 206 °C | Cn1ncc(/C=C/C(=O)Nc2ccc(CCn3cccn3)cc2)c1-c1ccc(F)cc1 [Example 186, (2E)-3-[5-(4-Fluorophenyl)-1-methyl-1H-pyrazol-4-yl]-N-{4-[2-(1H-pyrazol-1-yl)ethyl]phenyl}acrylamide]
19 | 233 to 234 °C | Cn1ncc(/C=C/C(=O)Nc2ccc(Cn3cnnn3)cc2)c1-c1ccc(F)cc1 [Example 199, (2E)-3 [5-(4-Fluorophenyl)-1-methyl-1H-pyrazol-4-yl]-N-[4-(1H-tetrazol-1-ylmethyl)phenyl]acrylamide]
20 | 157 to 158 °C | CCSCc1ccc(NC(=O)/C=C/c2cnn(C)c2-c2ccc(F)cc2)cc1 [Example 210, (2E)-N-{4-[(Ethylthio)methyl]phenyl}-3-[5-(4-fluorophenyl)-1-methyl-1H-pyrazol-4-yl]acrylamide]
21 | 203 to 205 °C | COC(=O)c1ncnn1Cc1ccc(NC(=O)/C=C/c2cnn(C)c2-c2ccc(F)cc2)cc1 [Example 164, Methyl 1-[4-({(2E)-3-[5-(4-fluorophenyl)-1-methyl-1H-pyrazol-4-yl]prop-2-enoyl}amino)benzyl]-1H-1,2,4-triazole-5-carboxylate]
22 | 160 to 162 °C | Cn1ncc(/C=C/C(=O)Nc2ccc(CCn3ccnc3)cc2)c1-c1ccc(F)cc1 [Example 187, (2E)-3-{5-(4-Fluorophenyl)-1-methyl-1H-pyrazol-4-yl}-N-{4-[2-(1H-imidazol-1-yl)ethyl]phenyl}acrylamide]
23 | 210 to 211 °C | Cn1ncc(/C=C/C(=O)Nc2ccc(Cn3ncnn3)cc2)c1-c1ccc(F)cc1 [Example 198, (2E)-3-[5-(4-Fluorophenyl)-1-methyl-1H-pyrazol-4-yl]-N-[4-(2H-tetrazol-2-ylmethyl)phenyl]acrylamide]
24 | 159 to 160 °C | Cn1ncc(/C=C/C(=O)Nc2ccc(Cc3nc(C(N)=O)cs3)cc2)c1-c1ccc(F)cc1 [Example 132, 2-[4-({(2E)-3-[5-(4-fluorophenyl)-1-methyl-1H-pyrazol-4-yl]prop-2-enoyl}amino)benzyl]-1,3-thiazole-4-carboxamide]
25 | 197 to 198 °C | Cn1ncc(/C=C/C(=O)Nc2ccc(CSc3ccccc3)cc2)c1-c1ccc(F)cc1 [Example 212, (2E)-3-[5-(4-Fluorophenyl)-1-methyl-1H-pyrazol-4-yl]-N-{4-[(phenylthio)methyl]phenyl}acrylamide]
26 | 228 to 229 °C | CC[S+]([O-])Cc1ccc(NC(=O)/C=C/c2cnn(C)c2-c2ccc(F)cc2)cc1 (stereo not shown) [Example 216, (2E)-N-{4-[(Ethylsulfinyl)methyl]phenyl}-3-[5-(4-fluorophenyl)-1-methyl-1H-pyrazol-4-yl]acrylamide]
27 | 151 to 152 °C | Cc1nnc(Cc2ccc(NC(=O)/C=C/c3cnn(C)c3-c3ccc(F)cc3)cc2)o1 [Example 136, (2E)-3-[5-(4-fluorophenyl)-1-methyl-1H-pyrazol-4-yl]-N-{4-[(5-methyl-1,3,4-oxadiazol-2-yl)methyl]phenyl}acrylamide]
28 | 179 to 183 °C | Cn1nnnc1[S+]([O-])Cc1ccc(NC(=O)/C=C/c2cnn(C)c2-c2ccc(F)cc2)cc1 (stereo not shown) [Example 220, (2E)-3-[5-(4-Fluorophenyl)-1-methyl-1H-pyrazol-4-yl]-N-(4-{[(1-methyl-1H-tetrazol-5-yl)sulfinyl]methyl}phenyl)acrylamide]
